# Reference: patent US20120121691A1, “Method for Increasing the Production of a Specific ACYL-Chain Dihydroceramide(s) for Improving the Effectiveness of Cancer Treatments” (priority 2010, published 2012)
# Tests used:
# [1] = system: intracellular sphingolipids, CCRF-CEM cells; assay: LC/MS/MS analysis of intracellular sphingolipids, CCRF-CEM; format: cell-based, human; conditions: for increase in corresponding dihydroceramide over sphinganine plus GT-11 alone: fatty acid in addition to sphinganine plus GT-11, six hours, P<0.05
# Experimental: LC/MS/MS analysis of intracellular sphingolipids. Sphingolipids were separated using an Agilent 1200 HPLC (LC) and determined by ESI/MS/MS performed on a AB SCIEX 4000 QTRAP Hybrid Triple Quadrupole/Linear Ion Trap mass spectrometer (MS), operating in a multiple reaction monitoring positive ionization mode as described previously with moderate modifications (25). Briefly, 50 μL of a solution (1 μM) of internal sphingolipid standards (including -sphingosine, -sphinganine, -sphingosine-1-phosphate, and -ceramide) was added to each cell pellet sample. Lipids of each sample were extracted twice with 2 mL of the ethyl acetate/isopropyl alcohol/water (60:28:12; v:v) solvent system. Supernatants were transferred to glass tubes (Kimble Chase) and evaporated under air (10 PSI) at 40° C. After reconstitution in methanol (4 mL), 1 ml of each sample was separated for the determination of lipid phosphate. Remaining sample (3 mL) was dried and used for sphingolipid quantification. For ESI/MS/MS, the dried lipid sample was dissolved in mobile phase A. Samples were injected (10 μL) and separated on a Spectra C8SR, 150×3.0 mm, 3-μm particle size column using gradient-elution (mobile phase A/B, prepared as previously described).
# Data acquisition, peak integration and analyte quantitation were performed using ABI/SCIEX Analyst 1.4.2 Software. Sphingolipid data were normalized to lipid phosphate as previously described (26). Briefly, samples were dried under air (10 PSI) and lipids were extracted using the method of Bligh and Dyer (27). Of importance for phosphate assay, only Kimble Chase disposable borosilicate tubes were used for minimal sample contamination. Organic phase was transferred to glass tubes and a known volume was separated to a new tube and dried at 80° C. Phosphate standards and dried samples were then heated with ashing buffer (water:10 N:70% [40:9:1]) at 160° C. overnight. Samples were then incubated with ammonium molybdate and ascorbic acid as previously described, and absorbance ([…]) was read using a SpectraMax.
# CCRF-CEM cells were treated with drug/fatty acid vehicles (control), GT-11 (0.5 μM) alone, sphinganine (4 μM) alone or sphinganine (4 μM) plus GT-11 (0.5 μM) for six hours and subsequently prepared for sphingolipid analysis.
# CCRF-CEM cells were treated with GT-11 (0.5 μM) alone, sphinganine (1 μM) alone or sphinganine (1 μM) plus GT-11 (0.5 μM) for six hours and prepared for quantitative analysis. DHCers were normalized to control and plotted as fold change (bar, z-axis). * indicates significance, with P<0.05. […] CCRF-CEM cells were treated with sphinganine (1 μM) plus GT-11 (0.5 μM) with and without specific solubilized fatty acids (carbon chain length (CX) and saturation (:X), Ex: C20:1=fatty acid with 20 carbons and one desaturation) for six hours and prepared for quantitative sphingolipid analysis. Dihydroceramides were normalized to control cells that received sphinganine plus GT-11 with no fatty acid and plotted as fold change (bar, z-axis). * indicates significance, with P<0.05.
# MOLT-4 ALL cells = assay: DIMSCAN cytotoxicity assay, MOLT-4; format: cell-based, human; conditions: MOLT-4, sphinganine 1 μM, GT-11 0.5 μM, 48 hours
# Text: (§1) Cell culture. The pre-T acute lymphoblastic leukemia cell lines MOLT-4 and CCRF-CEM, small cell lung cancer cell line NCI-H146, non-small cell lung cancer cell line NCI-H1792, colon cancer cell lines LoVo and HT-29, and breast cancer cell line MCF-7, were purchased from American Type Culture Collection, Manassas, Va., and grown at 20%/5% and 5%/5%, respectively. COG-LL-317 and COG-LL-332 pre-T acute lymphoblastic leukemia cell lines were obtained from the TTUHSC Cancer Center Cell Repository and grown at 5%/5%. Cell line identities were verified by short tandem repeat analysis and mycoplasma testing was performed. Cell lines were maintained in RPMI-1640 medium supplemented with 10% fetal bovine serum (FBS, Invitrogen) in humidified, 37° C. incubators. For all experiments, ALL cell lines were seeded at 2. cells/mL in RPMI-1640 medium supplemented with 15% fetal bovine serum. Solid tumor cell lines were plated at 5×cells/mL in RPMI-1640 medium supplemented with 10% fetal bovine serum.
# (§2) Cytotoxicity Assay. Cytoxicity is determined using the DIMSCAN assay system (R. Proffitt et al., Cytometry 24, 204-213 (1996); T. Frgala et al., Proc. AACR, 36, 303 (1995). The system employs digital imaging microscopy to quantify viable cells, which selectively accumulate fluorescein diacetate to become brightly fluorescent. The system is capable of measuring cytotoxicity over a 4-5 log dynamic range by quenching the residual fluorescence of dead and dying cells with eosin Y and quantifying the total fluorescence of viable cells using digital thresholding. Measured fluorescence is directly proportionate to the number of viable cells. A comparison of the total fluorescence of a drug-treated cell population to the fluorescence of a similar number of untreated cells yields a survival fraction. […]
# (§3) The addition of C22:0-fatty acid, but not C18:0 or C22:1 fatty acids, increased cytotoxicity (FIGS. 7A-7F). […] Cytotoxicity was measured using DIMSCAN, and data was normalized to control and plotted as survival fraction (y-axis). […]
# COG-LL-317 = assay: DIMSCAN cytotoxicity assay, COG-LL-317; format: cell-based; conditions: COG-LL-317, sphinganine 1 μM, GT-11 0.5 μM, 48 hours
# Text: as §1, §2, §3
# COG-LL-332 = assay: DIMSCAN cytotoxicity assay, COG-LL-332; format: cell-based; conditions: COG-LL-332, sphinganine 1 μM, GT-11 0.5 μM, 48 hours
# Text: as §1, §2, §3
# [2] = system: pre-T acute lymphoblastic leukemia cell lines CCRF-CEM, MOLT-4, COG-LL-317 and COG-LL-332; assay: DIMSCAN cytotoxicity assay across the four pre-T ALL cell lines; format: cell-based, human; conditions: COG-LL-317, COG-LL-332, CCRF-CEM, 4-HPR 0-9 μM, 48 hours
# Text: as §1, with “For all experiments, ALL cell lines were seeded at 2. cells/mL in RPMI-1640 medium supplemented with 15% fetal bovine serum. Solid tumor cell lines were plated at 5×cells/mL in RPMI-1640 medium supplemented with 10% fetal bovine serum.” left out
# as §2, with “cells.” for “cells. A comparison of the total fluorescence of a drug-treated cell population to the fluorescence of a similar number of untreated cells yields a survival fraction.”
# LoVo colon cancer cells = assay: DIMSCAN cytotoxicity assay, LoVo; format: cell-based, human; conditions: fatty acid 5 micromolar
# Text: as §1
# (§4) Cytotoxicity Assay. Cytoxicity is determined using the DIMSCAN assay system (R. Proffitt et al., Cytometry 24, 204-213 (1996); T. Frgala et al., Proc. AACR, 36, 303 (1995). The system employs digital imaging microscopy to quantify viable cells, which selectively accumulate fluorescein diacetate to become brightly fluorescent. The system is capable of measuring cytotoxicity over a 4-5 log dynamic range by quenching the residual fluorescence of dead and dying cells with eosin Y and quantifying the total fluorescence of viable cells using digital thresholding. Measured fluorescence is directly proportionate to the number of viable cells.
# (§5) In brief, 5,000 to 25,000 cells/well depending on the cell line (5,000 for solid tumor, 25,000 for ALL cell lines) were replicate plated into 60 wells of a 96-well tissue culture plate in 0.1 cc media and allowed to attach or recover overnight. Drug(s) are then added in 0.05 cc media to the final concentrations indicated. […] Total fluorescence of viable cells is then measured by digital imaging microscopy and the signal normalized to control cells. […]
# [3] = system: NCI-H146 small cell lung cancer cells; assay: DIMSCAN cytotoxicity assay, NCI-H146; format: cell-based, human; conditions: NCI-H146, fatty acid 5 micromolar
# Text: as §1, §4, §5
# [4] = system: MCF-7 breast cancer cells; assay: DIMSCAN cytotoxicity assay, MCF-7; format: cell-based; conditions: MCF-7, fatty acid 5 micromolar
# Text: as §1
# (§6) Cytotoxicity Assay. Cytoxicity is determined using the DIMSCAN assay system (R. Proffitt et al., Cytometry 24, 204-213 (1996); T. Frgala et al., Proc. AACR, 36, 303 (1995). The system employs digital imaging microscopy to quantify viable cells, which selectively accumulate fluorescein diacetate to become brightly fluorescent. The system is capable of measuring cytotoxicity over a 4-5 log dynamic range by quenching the residual fluorescence of dead and dying cells with eosin Y and quantifying the total fluorescence of viable cells using digital thresholding. Measured fluorescence is directly proportionate to the number of viable cells. A comparison of the total fluorescence of a drug-treated cell population to the fluorescence of a similar number of untreated cells yields a survival fraction.
# (§7) In brief, 5,000 to 25,000 cells/well depending on the cell line (5,000 for solid tumor, 25,000 for ALL cell lines) were replicate plated into 60 wells of a 96-well tissue culture plate in 0.1 cc media and allowed to attach or recover overnight. […]
# [5] = system: NCI-H1792 non-small cell lung cancer cells; assay: DIMSCAN cytotoxicity assay, NCI-H1792; format: cell-based; conditions: NCI-H1792, fatty acid 5 micromolar
# Text: as §1, §6, §7
# CCRF-CEM = system: CCRF-CEM
# Experimental: Statistical analyses. Descriptive statistics and significance testing were performed using Microsoft Excel. The Excel function “t.test” was used for Student's T-testing (two-tailed, type-2). Propagated standard deviations were calculated using standard methods. Correlation analyses were performed using Sigmaplot 11 software. […]
# Due to the confounding effect of in vitro fatty acid conversion, correlation analyses were used to identify significant relationships between absolute levels of specific sphingolipids and cytotoxicity. […]
compound,measurement,setting,value
CCCCCCCCCCCCCC(=O)O [C14:0-fatty acid],increase in corresponding dihydroceramide over sphinganine plus GT-11 alone,[1],significant increases
CCCCCCCCCCCCCCCC(=O)O [C16:0-fatty acid],increase in corresponding dihydroceramide over sphinganine plus GT-11 alone,[1],significant increases
CCCCCCCCCCCCCCCCCC(=O)O [C18:0-fatty acid],effect of fatty acid co-treatment on cytotoxicity of sphinganine with GT-11,MOLT-4 ALL cells,not
same,effect of fatty acid co-treatment on cytotoxicity of sphinganine with GT-11,COG-LL-317,not
same,effect of fatty acid co-treatment on cytotoxicity of sphinganine with GT-11,COG-LL-332,not
same,effect of fatty acid on fenretinide (4-HPR) cytotoxicity,[2],not
same,effect of fatty acid on fenretinide cytotoxicity,LoVo colon cancer cells,did not increase cytotoxicity
same,effect of fatty acid on fenretinide cytotoxicity,[3],did not increase cytotoxicity
same,effect of fatty acid on fenretinide cytotoxicity,[4],did not increase cytotoxicity
same,effect of fatty acid on fenretinide cytotoxicity,[5],did not increase cytotoxicity
CCCCCCCCCCCCCCCCCCCC(=O)O [C20:0-fatty acid],increase in C22:0-DHCer over sphinganine plus GT-11 alone,"[1]; fatty acid 5 μM in addition to sphinganine 1 μM plus GT-11 0.5 μM, six hours, P<0.001",12 fold
same,increase in corresponding dihydroceramide over sphinganine plus GT-11 alone,[1],significant increases
CCCCCCCCCCCCCCCCCCCCCCCC(=O)O [C24:0-fatty acid],increase in corresponding dihydroceramide over sphinganine plus GT-11 alone,[1],significant increases
same,effect of fatty acid on fenretinide cytotoxicity,LoVo colon cancer cells,did not increase cytotoxicity
same,effect of fatty acid on fenretinide cytotoxicity,[3],did not increase cytotoxicity
same,effect of fatty acid on fenretinide cytotoxicity,[4],did not increase cytotoxicity
same,effect of fatty acid on fenretinide cytotoxicity,[5],did not increase cytotoxicity
CCCCCCCC/C=C\CCCCCCCCCCCCCC(=O)O [C24:1-fatty acid],increase in corresponding dihydroceramide over sphinganine plus GT-11 alone,[1],significant increases
"CCCCCCCCCCCCCCC[C@@H](O)[C@@H](N)CO [Sphinganine, (2S,3R)-2-aminooctadecane-1,3-diol, reference compound]",increase of total ceramide,"[1]; sphinganine 4 μM alone, six hours, normalized to control, P<0.001",1.5 fold
same,"Pearson Coef. (r), sphingolipid level vs cytotoxicity",CCRF-CEM,−0.21
same,"Spearman Coef. (ρ), sphingolipid level vs cytotoxicity",CCRF-CEM,−0.30
